Broadly, the IC50 is the concentration that inhibits the measured activity by half. Higher therefore signals lower potency.

We go through one compound from patent US11357774B2, “Use of a quinoline sulfonyl compound for treatment of inflammation, inflammatory disorders, autoimmune disorders and malaria” (priority 2019, dated 2022).

Experiment [1] deals with IL-8 secretion in THP-1 cells. Put plainly: IL-8 secretion in TNF-α-stimulated THP-1 cells (ELISA). Type of experiment: cell-based, human. The settings on record: THP-1, TNF-α 10 ng/mL, 6 hours. The method, then: For comparison, BTZ (6 nM), CFZ (1 nM), and DEX (2 μM) were also included. *** is p<0.001, which denotes a significant difference from the TNF-α-only group, determined by a Dunnett's test. The values presented are the mean±SEM (n=3).
(§1) The enzyme-linked immunosorbent assay (ELISA) is a quantitative measurement based on sandwich-based enzyme linking, using a protein-specific capture antibody to determine the levels of single or multiple chemokines and cytokines.
The data in FIG. 12 show the levels of IL-8 secreted in the THP-1 culture medium in response to TNF-α alone (10 ng/mL) or in combination with varying concentrations (0.5, 1.0, 2, 4 or 6 μM) of VR23. For comparison, BTZ (6 nM), CFZ (1 nM) and DEX (2 μM) were also included. The measurement time was 6-hour post-stimulation. The measurement was carried out with a single-analyte ELISA.

For experiment [2], the system named is IL-1β, TNF-α, IL-6 and IL-8 secretion in THP-1 cells. Put plainly: Cytokine secretion in LPS-stimulated THP-1 cells (ELISA). The experiment is classed as cell-based, human. The settings on record: THP-1, LPS 5 μg/mL, 6 hours. The protocol: For comparison, BTZ (6 nM), CFZ (1 nM), and DEX (2 μM) were also included. *, **, and *** are p<0.05, p<0.01, and p<0.001, respectively, which denote a significant difference from the LPS-only group. The mean±SEM (n=3) values were determined by a Dunnett's test.
as §1
Data shown in FIG. 11 are the results of experiments carried out to investigate VR23's effect on the levels of inflammatory cytokines. […] For comparison, BTZ (6 nM), CFZ (1 nM) and DEX (2 μM) were also included. The levels of cytokine secreted in cell culture supernatants were measured by a single-analyte ELISA. The IC50 value of VR23 is 3 μM and the concentrations of BTZ, CFZ and DEX used are their respective IC50 values.

The test system of experiment [3] is IL-6 and TNF-α secretion in human PBMC. Put plainly: IL-6 and TNF-α in PHA-p-stimulated human PBMC (ELISA). The settings on record: PHA-p 10 μg/mL, 6 hours. The experiment is classed as cell-based. The method, then: (§2) The values presented are the mean±SEM (n=2).
as §1
Data in FIG. 14 show the levels of IL-6 (upper plot) and TNF-α (lower plot) in human PBMC (1×10^6/mL cells) stimulated with 10 μg/mL phytohemagglutinin-p (PHA-p) (10 μg/mL) for 6 hours, in the absence (control) or presence of varying concentrations of VR23 (0.38, 0.75, 1.5, 3 or 6 μM) or BTZ (6.25, 12.5, 25 or 50 nM). The measurement was carried out with a single-analyte ELISA.
(In general: In an ELISA, binding on a coated surface is turned into a signal by an enzyme label.)

The test system of a further experiment is THP-1 monocytic cells. Description: Sulforhodamine B (SRB) assay, IC50 on THP-1 cells. Type of experiment: cell-based, human. The protocol: (§3) The sulforhodamine B (SRB) assay^21 was used to determine the drug concentration that half of the cell growth/viability is inhibited (IC50). Cells were cultured in 96-well plates, with 5,000 cells in 100 μL of culture medium per well. The rest of the protocol was the same as described previously^22,23.
(§4) Data shown in Table 1 are IC50 values of VR23 and other compounds, which were determined using sulforhodamine B (SRB) assays on immunologically relevant cells (THP-1, SW-982 and PBMC). […] Two well-known proteasome inhibitors, BTZ and CFZ, were included for comparison since VR23 is also a proteasome inhibitor, albeit targeting different subunits^2. The widely used anti-inflammatory DEX was included, also for comparison.
(§5) THP-1, SW982 and PBMC cells (5,000 cells/well) were treated with each compound for 48 hours. The IC50, the drug concentration reducing cell growth/viability by 50%, was determined by a dose-response four-parameter curve (generated with GraphPad Prism V. 4.02) formed by 10 two-fold dilutions (n=3).
Background: In SRB staining, fixed cells bind dye roughly in proportion to their protein.

The subject of experiment [4] is cancer over non-cancer cells. The conditions noted are these: in vitro studies; cited from earlier work.
The test system of experiment [5] is SW-982 synovial cell line. Description: Sulforhodamine B (SRB) assay, IC50 on SW-982 cells. Type of experiment: cell-based. The conditions noted are these: Homo sapiens, SW982, 48 h. The protocol: as §3, §4, §5
Experiment [6] concerns CQ-sensitive P. falciparum 3D7. Description: Anti-parasitic assay (SYBR Green I), 3D7 strain. The experiment is classed as cell-based. The conditions noted are these: Plasmodium falciparum, 3D7, 48 h. The protocol:
The CQ-resistant P. falciparum ItG and the CQ-sensitive 3D7 strains were maintained and assays carried out as described previously^25. Briefly, P. falciparum strains were maintained in RPMI 1640 culture medium supplemented with 10% human serum, 25 mM HEPES, gentamicin, and 50 μM of hypoxanthine. The anti-parasitic assay was carried out as described previously^25. Briefly, a compound gradient was generated across a 96-well assay plate; a constant number of parasites added in 50 μL of the culture medium; allowed to grow for 48 hours; and followed by the measurement of DNA amounts (i.e., fluorescence) using SYBR Green I. The IC50 value is the 50% point between alive and dead for which a three-parameter fit was used.
VR23 is a derivative of CQ; a well-known anti-malarial drug. […] ItG and […] P. falciparum strains are CQ-resistant and CQ-sensitive strains, respectively. IC50 values were calculated by S.E.M (Table 2).

For another experiment, the system named is HFLS-RA cell migration. Put plainly: Cell migration assay (matrigel invasion chamber), HFLS-RA. The settings on record: 24 hours, 5 μM or 10 μM. Type of experiment: cell-based, human. The method, then: as §2
Cell migration assays were performed with Corning invasion chambers with Matrigel matrix (Fisher Scientific). The lower chamber contained compounds (e.g., VR23 or HCQ) and FBS as a chemo-attractant. The upper chamber was loaded with cells in FBS-free medium. The analysis of the trans-well inserts were carried out as described previously^24. After 24 hours of incubation, the trans-well inserts were removed, and then the remaining media and cells on the upper chamber were also removed from the top of the membrane with a cotton swab. The trans-well inserts were placed into wells containing 1 mL of 70% ethanol for 10 minutes to fix the cells. The residual ethanol was carefully removed with a cotton swab. Cells on the trans-well insert membrane were then air-dried at room temperature for 15 minutes. The trans-well insert containing cells were placed in 1 mL of 0.2% crystal violet for 10 minutes to stain. The excessive crystal violet was carefully removed from the membrane with a cotton swab. Subsequently, cells on the trans-well membrane were air-dried at room temperature prior to analysis under an inverted microscope. Images (10×) were captured at 5 different fields. The average number of cells that migrated through the membrane towards the chemo-attractant were determined. […]

Consider `O=[N+]([O-])c1ccc(S(=O)(=O)N2CCN(c3ccnc4cc(Cl)ccc34)CC2)c([N+](=O)[O-])c1` [VR23, 7-chloro-4-(4-(2,4-dinitrophenylsulfonyl)piperazin-1-yl)quinoline], for which the “level of IL-8” value in experiment [1] (0.5 μM) is “significantly (p<0.001) reduced the level of IL-8”. For the same compound, the IL-8 secretion result in experiment [1] (VR23 at IC50 concentration (between 2 and 4 μM), BTZ 6 nM, CFZ 1 nM) was “effectively reduces IL-8 secretion”. Further, the “level of IL-6 in response to LPS” value in experiment [2] is listed as “especially effective on reducing the level of IL-6”. Besides, the “cytokine secretion, dose dependence” value in experiment [2] (VR23 0.5, 1.0, 2, 3, 4 or 6 μM) is “decreased cytokine secretion in a dose dependent manner”. Further, the “levels of inflammatory cytokines IL-1β, TNF-α, IL-6, IL-8” value in experiment [2] (VR23 0.5-6 μM, BTZ 6 nM, CFZ 1 nM, DEX 2 μM) was “substantial and comparable anti-inflammatory activities”. The “PHA-induced IL-6” value in experiment [3] (VR23 1.5 μM, BTZ 6 nM) is “completely prevented”. The “PHA-induced TNF-α” value in experiment [3] (VR23 3.0 μM, BTZ 4× the IC50 dose) is “completely prevented”. In addition, the “cytokine secretion (IL-6, TNF-α), dose dependence” value in experiment [3] (VR23 0.38-6 μM) is recorded as “decreases in a dose dependent manner”. The concentration for half-maximal inhibition (IC50) stood at 2.58 ± 0.5 µM in the experiment with THP-1 monocytic cells (48 hours); 3 µM in the experiment on THP-1 monocytic cells (Homo sapiens, THP-1, 48 h); 4.33 ± 0.7 µM in experiment [5]; 0.416 µM in experiment [6]. Besides, the “selectivity of cell killing” value in experiment [4] was “preferentially kills cancer over non-cancer cells”. For the same compound, in the experiment on HFLS-RA cell migration, the “cell migration promoted by 10% FBS” value is on record as “completely prevents cell migration”.
